Measurements taken from the supplement of paper PMC4862054.
Where “and” joins values, the source holds several entries; their conditions need not be identical. Identical values can stand only once.

Key:
Conditions in all cases: incubation time: 72 h
CAL-148 [1] = experiment: normalised viability (% of control), CellTiter-Blue; higher = more viable cells (about 100 = DMSO control)
Description: (§1)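 DSRT, CellTiter-Blue viability, 72 h incubation. Signal is normalised to DMSO and benzethonium chloride controls. Value is the normalised response at dose 7.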

CAL-51 [2] = experiment: as above
Description: as §1

CAL-85-1 [3] = experiment: as above
Description: as §1

DU-4475 = experiment: as above
Description: as §1

HDQ-P1 [4] = experiment: as above
Description: as §1

MDA-MB-453 [5] = experiment: as above
Description: as §1

BT-474 = experiment: normalised response (% of control), CellTox Green; higher = less cell death (100 = DMSO, 0 = benzethonium chloride kill control)
Procedure, shortened: (§2)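 Each value is the plate-normalised signal at one concentration of the series. Breast cancer cell lines (20 µl suspension) were incubated 72 h in 384-well plates with compound at 5 concentrations in 10-fold steps over a compound-specific 10,000-fold range. CellTox Green and then CellTiter-Glo were read, and each plate was scaled to 0.1 % DMSO (100) and a positive kill control (0).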

BT-549 = experiment: as above
Procedure, shortened: as §2

CAL-148 [6] = experiment: as above
Procedure, shortened: as §2

CAL-51 [7] = experiment: as above
Procedure, shortened: as §2

CAL-85-1 [8] = experiment: as above
Procedure, shortened: as §2

HCC1143 = experiment: as above
Procedure, shortened: as §2

HCC1599 = experiment: as above
Procedure, shortened: as §2

HDQ-P1 [9] = experiment: as above
Procedure, shortened: as §2

Hs578T = experiment: as above
Procedure, shortened: as §2

MDA-MB-231 = experiment: as above
Procedure, shortened: as §2

MDA-MB-436 = experiment: as above
Procedure, shortened: as §2

MDA-MB-453 [10] = experiment: as above
Procedure, shortened: as §2

MFM-223 = experiment: as above
Procedure, shortened: as §2

HCC1937 = experiment: as above
Procedure, shortened: as §2

| SMILES | normalised viability (CAL-148 [1]) | normalised viability (CAL-51 [2]) | normalised viability (CAL-85-1 [3]) | normalised viability (DU-4475) | normalised viability (HDQ-P1 [4]) | normalised viability (MDA-MB-453 [5]) | normalised response (BT-474) | normalised response (BT-549) | normalised response (CAL-148 [6]) | normalised response (CAL-51 [7]) | normalised response (CAL-85-1 [8]) | normalised response (HCC1143) | normalised response (HCC1599) | normalised response (HDQ-P1 [9]) | normalised response (Hs578T) | normalised response (MDA-MB-231) | normalised response (MDA-MB-436) | normalised response (MDA-MB-453 [10]) | normalised response (MFM-223) | normalised response (HCC1937) |
| --- | --- | --- | --- | --- | --- | --- | --- | --- | --- | --- | --- | --- | --- | --- | --- | --- | --- | --- | --- | --- |
| Cc1c(N)nc([C@H](CC(N)=O)NC[C@H](N)C(N)=O)nc1C(=O)N[C@H](C(=O)N[C@H](C)[C@@H](O)[C@H](C)C(=O)N[C@H](C(=O)NCCc1nc(-c2nc(C(=O)NCCC[S+](C)C)cs2)cs1)[C@@H](C)O)[C@@H](OC1OC(CO)C(O)C(O)C1OC1OC(CO)C(O)C(OC(N)=O)C1O)c1cnc[nH]1 (some centres undefined) [Bleomycin] (1000 nM) | 105% | 105% | 94.5% | 98.9% | 88% | 94.3% | 98.2% | 92% | 58.4% | 44.5% | 92.7% | 99.9% | 94.8% | 54.8% | 67.4% | 67.9% | 84.5% | 99.1% | 88% |  |
| Cc1cc2c(F)c(Oc3ncnn4cc(OC[C@@H](C)O)c(C)c34)ccc2[nH]1 [Brivanib] (100 nM) | 111% | 93.7% | 87% | 104% | 110% | 90% | 100% | 117% | 104% | 99.4% | 103% | 79.8% | 99.8% | 106% |  | 115% | 81.2% | 103% | 102% | 101% |
| CCCCCOC(=O)Nc1nc(=O)n([C@@H]2O[C@H](C)[C@@H](O)[C@H]2O)cc1F [Capecitabine] (1000 nM) | 105% and 102% | 106% and 104% | 79.7% and 96.2% | 87.4% and 85.9% |  | 86.8% and 94.9% | 99.1% | 117% | 76.8% | 113% | 109% | 109% | 96.3% | 110% | 71.7% |  | 100% | 103% | 99.4% | 71.6% |
| CCN(CC)CCOc1ccc(C(=C(Cl)c2ccccc2)c2ccccc2)cc1 [Clomifene] (1000 nM) | 110% | 85.4% | 97.6% | 103% | 128% | 108% | 97.6% | 114% | 104% | 110% | 99.8% | 82.3% | 100% | 90.2% | 102% | 96% | 83.7% | 104% |  | 82.8% |
| C[C@@H]1C[C@H]2[C@@H]3CCC4=CC(=O)C=C[C@]4(C)[C@@]3(F)[C@@H](O)C[C@]2(C)[C@@]1(O)C(=O)CO [Dexamethasone] (1000 nM) | 115% | 101% | 103% | 106% | 117% | 69.8% | 99.3% | 111% |  | 110% | 98.8% | 107% | 87% | 56.1% | 77.8% | 141% | 81.5% | 94.8% | 54.1% | 106% |
| NC(=O)NO [Hydroxyurea] (10000 nM) | 112% | 104% | 102% | 101% | 103% | 108% | 100% | 115% | 98.2% | 69.1% | 116% | 98.7% | 103% |  |  | 113% | 84.6% | 106% | 79.9% |  |
| NC(=O)c1cccc2cn(-c3ccc([C@@H]4CCCNC4)cc3)nc12 [MK-4827] (1000 nM) | 87.4% | 90.8% | 93% | 78.9% | 91.8% | 93.3% | 101% | 134% | 80.5% | 82.8% | 95.6% | 81.1% | 99.2% |  | 113% | 120% | 86.7% | 106% | 101% | 104% |
| O=C(c1cc(Cc2n[nH]c(=O)c3ccccc23)ccc1F)N1CCN(C(=O)C2CC2)CC1 [Olaparib] (1000 nM) | 84.3% | 88.6% | 85.8% | 81.1% | 104% | 79.4% | 92.9% | 124% | 92.9% | 89.5% | 102% | 93.3% | 94.9% | 71.5% | 83.4% | 100% | 60.6% | 112% |  | 109% |
